This note sets out measurements from PubChem BioAssay AID248 (DTP/NCI, 2004).

The assay deals with L1210 leukemia ip in BDF1 mice, survival T/C. Description: NCI In Vivo Anticancer Drug Screen. Data for tumor model L1210 Leukemia (intraperitoneal) in B6D2F1 (BDF1) mice. As to conditions: endpoint: mean survival time, higher = longer survival. The method, boiled down: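 Mice bearing the transplanted tumor received compound or vehicle. Survival of the treated group was divided by that of the vehicle-treated control group to give the ratio.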

Where [1] appears, read: dose: 100.0 mg/kg/injection, schedule: Q01DX009 (ip), vehicle: Klucel (hydroxypropylcellulose) (HPC).
The mark [2] stands for this setting: dose: 200.0 mg/kg/injection, schedule: Q01DX009 (ip), vehicle: Klucel (hydroxypropylcellulose) (HPC).
The mark [3] stands for this setting: dose: 400.0 mg/kg/injection, schedule: Q01DX009 (ip), vehicle: Klucel (hydroxypropylcellulose) (HPC).
Setting [4] is: dose: 100.0 mg/kg/injection, schedule: Q04DX003 (ip), vehicle: saline.
The mark [5] stands for this setting: dose: 200.0 mg/kg/injection, schedule: Q04DX003 (ip), vehicle: saline.
The mark [6] stands for this setting: dose: 400.0 mg/kg/injection, schedule: Q04DX003 (ip), vehicle: saline.
Where [7] appears, read: dose: 100.0 mg/kg/injection, schedule: Q01DX009 (ip), vehicle: saline with Tween-80.
[8] abbreviates: dose: 200.0 mg/kg/injection, schedule: Q01DX009 (ip), vehicle: saline with Tween-80.
The mark [9] stands for this setting: dose: 100.0 mg/kg/injection, schedule: Q04DX003 (ip), vehicle: saline with Tween-80.
[10] abbreviates: dose: 200.0 mg/kg/injection, schedule: Q04DX003 (ip), vehicle: saline with Tween-80.
[11] abbreviates: dose: 400.0 mg/kg/injection, schedule: Q04DX003 (ip), vehicle: saline with Tween-80.
Setting [12] is: dose: 100.0 mg/kg/injection, schedule: Q04DX002 (ip), vehicle: Klucel (hydroxypropylcellulose) (HPC).
[13] abbreviates: dose: 200.0 mg/kg/injection, schedule: Q04DX002 (ip), vehicle: Klucel (hydroxypropylcellulose) (HPC).
The mark [14] stands for this setting: dose: 400.0 mg/kg/injection, schedule: Q04DX002 (ip), vehicle: Klucel (hydroxypropylcellulose) (HPC).

Where “and” joins values, the source holds several entries; their conditions need not be identical. Equal entries are not always repeated. Toxic doses and inconclusive results are not listed.

Take `O=NN(CCCl)C(=O)Nc1ccc(CC(=O)O)cc1`: the T/C by setting is: (dose: 8.0 mg/kg/injection, schedule: Q01DX001 (ip), vehicle: carboxymethylcellulose (CMC)) 154 % of control; (dose: 12.0 mg/kg/injection, schedule: Q01DX001 (ip), vehicle: carboxymethylcellulose (CMC)) 189 % of control; (dose: 18.0 mg/kg/injection, schedule: Q01DX001 (ip), vehicle: carboxymethylcellulose (CMC)) 226 % of control; (dose: 26.0 mg/kg/injection, schedule: Q01DX001 (ip), vehicle: carboxymethylcellulose (CMC)) 236 % of control.

For `CCOC(=O)N1Cc2cc3ccccc3nc2C1C1OC(CC)(C(=O)OCC)C1=O` (stereo not drawn), the T/C reads like this: (dose: 10.0 mg/kg/injection, schedule: Q07DX002 (ip), vehicle: alcohol) 96 % of control; (dose: 20.0 mg/kg/injection, schedule: Q07DX002 (ip), vehicle: alcohol) 105 % of control; (dose: 40.0 mg/kg/injection, schedule: Q07DX002 (ip), vehicle: alcohol) 89 % of control; (dose: 80.0 mg/kg/injection, schedule: Q07DX002 (ip), vehicle: alcohol) 105 % of control.

Turning to `CCOc1ccccc1N1C(=O)C=CC1=O`, the T/C runs as follows: (dose: 12.5 mg/kg/injection, schedule: Q04DX002 (ip), vehicle: saline with Tween-80) 96 % of control; (dose: 25.0 mg/kg/injection, schedule: Q04DX002 (ip), vehicle: saline with Tween-80) 109 % of control.

On to `CCCCOC(=O)NC/C(Br)=C/Br`, for which the T/C under setting [1] is 96 % of control; the T/C (dose: 100.0 mg/kg/injection, schedule: Q04DX003 (ip), vehicle: Klucel (hydroxypropylcellulose) (HPC)) was 100 % of control; the T/C under setting [2] was 94 % of control; the T/C (dose: 200.0 mg/kg/injection, schedule: Q04DX003 (ip), vehicle: Klucel (hydroxypropylcellulose) (HPC)) is 96 % of control; the T/C under setting [3] is 91 % of control; the T/C (dose: 400.0 mg/kg/injection, schedule: Q04DX003 (ip), vehicle: Klucel (hydroxypropylcellulose) (HPC)) was 105 % of control.

For the molecule `COc1nc(OC)c(OP(=O)(OC)OC)c(OC)n1`, the T/C is 95 % of control (dose: 50.0 mg/kg/injection, schedule: Q01DX001 (ip), vehicle: saline); 98 % of control (dose: 100.0 mg/kg/injection, schedule: Q01DX001 (ip), vehicle: saline); 89 % of control (dose: 200.0 mg/kg/injection, schedule: Q01DX001 (ip), vehicle: saline); 95 % of control (dose: 400.0 mg/kg/injection, schedule: Q01DX001 (ip), vehicle: saline).

As to `Cc1ccc(C#N)s1`, the T/C was 98 % of control (dose: 3.12 mg/kg/injection, schedule: Q01DX009 (ip), vehicle: other); 104 % of control (dose: 6.25 mg/kg/injection, schedule: Q01DX009 (ip), vehicle: other); 98 % of control (dose: 12.5 mg/kg/injection, schedule: Q01DX009 (ip), vehicle: other); 102 % of control (dose: 16.0 mg/kg/injection, schedule: Q04DX003 (ip), vehicle: saline); 106 % of control (dose: 25.0 mg/kg/injection, schedule: Q01DX009 (ip), vehicle: other); 117 % of control (dose: 25.0 mg/kg/injection, schedule: Q04DX003 (ip), vehicle: saline).

Take `CC(=O)NC(C)C(C)(C)O` (stereo not drawn): the T/C reads like this: (dose: 100.0 mg/kg/injection, schedule: Q01DX009 (ip), vehicle: saline) 101 % of control; (dose: 200.0 mg/kg/injection, schedule: Q01DX009 (ip), vehicle: saline) 98 % of control; (dose: 400.0 mg/kg/injection, schedule: Q01DX009 (ip), vehicle: saline) 103 % of control.

In the case of `COc1ccc(CC(=O)O)c(OC)c1`, the T/C is 98 % of control (dose: 100.0 mg/kg/injection, schedule: Q01DX007 (ip), vehicle: saline with Tween-80); 94 % of control under setting [4]; 95 % of control (dose: 200.0 mg/kg/injection, schedule: Q01DX007 (ip), vehicle: saline with Tween-80); 99 % of control under setting [5]; 94 % of control under setting [6].

With `CC(C)=C(c1ccc(C(C)(C)C)cc1)c1ccc(C(C)(C)C)cc1`, the T/C runs as follows: under setting [7], 94 % of control; under setting [8], 95 % of control.

For `C=CCCCCCCCC/C=C1\CCOC1=O`, the T/C is 105 % of control (dose: 75.0 mg/kg/injection, schedule: Q01DX009 (ip), vehicle: saline with Tween-80); 104 % of control under setting [9]; 93 % of control (dose: 150.0 mg/kg/injection, schedule: Q01DX009 (ip), vehicle: saline with Tween-80); 89 % of control under setting [10]; 99 % of control (dose: 300.0 mg/kg/injection, schedule: Q01DX009 (ip), vehicle: saline with Tween-80); 102 % of control under setting [11].

On to `O=C1c2cccc3cccc(c23)C1(Br)C(Br)c1ccccc1` (stereo not drawn), for which the T/C is 97 % of control (dose: 100.0 mg/kg/injection, schedule: Q04DX002 (ip), vehicle: saline with Tween-80); 97 % of control (dose: 200.0 mg/kg/injection, schedule: Q04DX002 (ip), vehicle: saline with Tween-80); 97 % of control (dose: 400.0 mg/kg/injection, schedule: Q04DX002 (ip), vehicle: saline with Tween-80).

Take `CC1=CC(C)(C)NC(=S)N1`: the T/C is, setting by setting: under setting [1], 97 % of control; under setting [4], 113 % of control; under setting [2], 101 % of control; under setting [5], 106 % of control; under setting [3], 98 % of control; under setting [6], 107 % of control.

Turning to `COc1cc(C(=O)N=Nc2c(O)[nH]c3ccc(Br)cc23)cc(OC)c1OC`, the T/C under setting [12] is 115 % of control, the T/C under setting [13] is 104 % of control and the T/C under setting [14] is 115 % of control.

Turning to `c1ccc(NC(c2ccccc2)C(Nc2ccccc2)(c2ccccc2)c2ccccc2)cc1` (stereo not drawn), the T/C was 89 % of control (dose: 100.0 mg/kg/injection, schedule: Q04DX003 (ip), vehicle: other); 94 % of control (dose: 200.0 mg/kg/injection, schedule: Q04DX003 (ip), vehicle: other); 87 % of control (dose: 400.0 mg/kg/injection, schedule: Q04DX003 (ip), vehicle: other).

`Cc1cc(OC(=O)Nc2cccc3ccccc23)ccc1Cl`: the T/C is 97 % of control and 101 % of control (dose: 100.0 mg/kg/injection, schedule: Q01DX009 (ip), vehicle: carboxymethylcellulose (CMC)); 105 % of control under setting [12]; 93 % of control and 91 % of control (dose: 100.0 mg/kg/injection, schedule: Q04DX002 (ip), vehicle: carboxymethylcellulose (CMC)); 103 % of control (dose: 100.0 mg/kg/injection, schedule: Q04DX003 (ip), vehicle: carboxymethylcellulose (CMC)); 98 % of control and 91 % of control (dose: 200.0 mg/kg/injection, schedule: Q01DX009 (ip), vehicle: carboxymethylcellulose (CMC)); 97 % of control under setting [13]. In addition, the T/C reads like this: (dose: 200.0 mg/kg/injection, schedule: Q04DX002 (ip), vehicle: carboxymethylcellulose (CMC)) 97 % of control and 98 % of control; (dose: 200.0 mg/kg/injection, schedule: Q04DX003 (ip), vehicle: carboxymethylcellulose (CMC)) 94 % of control; (dose: 400.0 mg/kg/injection, schedule: Q01DX009 (ip), vehicle: carboxymethylcellulose (CMC)) 94 % of control and 98 % of control; under setting [14], 109 % of control; (dose: 400.0 mg/kg/injection, schedule: Q04DX002 (ip), vehicle: carboxymethylcellulose (CMC)) 95 % of control; (dose: 400.0 mg/kg/injection, schedule: Q04DX003 (ip), vehicle: carboxymethylcellulose (CMC)) 90 % of control.

Take `Cc1ccc(Cl)cc1NC(=O)N1CCCCC1C` (stereo not drawn): the T/C (dose: 50.0 mg/kg/injection, schedule: Q04DX002 (ip), vehicle: saline with Tween-80) is 106 % of control and 92 % of control; the T/C (dose: 100.0 mg/kg/injection, schedule: Q01DX001 (ip), vehicle: saline with Tween-80) is 109 % of control; the T/C under setting [7] was 95 % of control and 96 % of control; the T/C under setting [9] was 97 % of control; the T/C (dose: 200.0 mg/kg/injection, schedule: Q01DX001 (ip), vehicle: saline with Tween-80) was 103 % of control; the T/C under setting [8] is 94 % of control and 100 % of control. The T/C by setting is: under setting [10], 103 % of control; (dose: 400.0 mg/kg/injection, schedule: Q01DX001 (ip), vehicle: saline with Tween-80) 104 % of control; under setting [11], 95 % of control.
